Measured values published in patent publication US12577229B2, “Substituted {5-methoxy-6-[(5-methoxypyridin-2-yl)methoxy]pyridin-3-yl} methyl compounds as CSF-1R inhibitors” (Eli Lilly and Company, priority 2020, dated 2026).

What was measured:
[1] = test system: 5xFAD model of Alzheimer's disease; conditions: cited from earlier work
[2] = test system: P301S mouse tauopathy model; conditions: cited from earlier work
[3] = molecular target: T1, human PDGFRβ (Homo sapiens, UniProt P09619); test: DiscoverX PathHunter RTK cell based functional assay, PDGFRβ; conditions: PDGFRβ U2OS cells, 3 nM PDGF-BB agonist, n=4
T1 construct: enzyme fragment for Enzyme Fragment Complementation (β-galactosidase fragment); host or cells: U2OS
T1 sequence (P09619 33-1106): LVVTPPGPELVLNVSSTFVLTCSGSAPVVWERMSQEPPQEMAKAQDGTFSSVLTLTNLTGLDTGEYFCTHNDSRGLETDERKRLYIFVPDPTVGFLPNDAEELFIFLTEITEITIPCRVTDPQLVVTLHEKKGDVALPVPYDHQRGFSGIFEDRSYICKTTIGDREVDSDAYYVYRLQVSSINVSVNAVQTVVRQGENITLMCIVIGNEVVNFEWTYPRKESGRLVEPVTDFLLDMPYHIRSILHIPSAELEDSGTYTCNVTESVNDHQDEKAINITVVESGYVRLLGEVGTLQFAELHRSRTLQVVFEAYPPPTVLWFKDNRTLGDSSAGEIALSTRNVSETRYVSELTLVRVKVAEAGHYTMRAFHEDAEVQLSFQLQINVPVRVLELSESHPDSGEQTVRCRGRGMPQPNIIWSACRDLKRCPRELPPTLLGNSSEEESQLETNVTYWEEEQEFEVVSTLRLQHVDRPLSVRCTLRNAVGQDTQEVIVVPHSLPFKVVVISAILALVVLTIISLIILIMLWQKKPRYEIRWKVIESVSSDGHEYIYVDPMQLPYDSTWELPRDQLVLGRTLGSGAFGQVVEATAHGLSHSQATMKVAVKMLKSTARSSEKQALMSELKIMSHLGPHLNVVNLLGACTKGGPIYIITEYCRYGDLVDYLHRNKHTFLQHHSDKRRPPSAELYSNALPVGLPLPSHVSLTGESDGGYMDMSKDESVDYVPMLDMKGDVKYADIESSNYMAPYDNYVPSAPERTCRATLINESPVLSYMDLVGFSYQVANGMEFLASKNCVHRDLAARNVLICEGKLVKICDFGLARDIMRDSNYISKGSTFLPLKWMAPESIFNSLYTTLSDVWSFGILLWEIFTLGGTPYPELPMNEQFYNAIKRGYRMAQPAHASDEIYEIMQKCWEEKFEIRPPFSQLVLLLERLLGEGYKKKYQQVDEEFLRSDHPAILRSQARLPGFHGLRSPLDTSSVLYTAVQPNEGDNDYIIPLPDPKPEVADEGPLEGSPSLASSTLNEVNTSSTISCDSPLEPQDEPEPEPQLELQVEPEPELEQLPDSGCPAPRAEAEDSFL
Procedure: DiscoverX® PathHunter Receptor Tyrosine Kinase (RTK) Cell Based Functional Assay
For in vitro PDGFRβ (Accession NM_002609, Part No. 93-0493C3) and c-Kit (Accession NM_000222, Part No. 93-0853C3) cellular assays, the test compounds are prepared in DMSO to make up a 10 mM stock solution. The stock solution is serially diluted two-fold in DMSO to obtain a twenty-point curve with final compound concentrations ranging from 20.0 μM to 0.019 nM.
DiscoverX® PathHunter Receptor Tyrosine Kinase (RTK) cell based functional assays are utilized to profile compounds using Enzyme Fragment Complementation technology with human PDGFRβ U2OS cells and human c-Kit U2OS cells. Cells are continuously cultured from cell passage 5 up to cell passage 30 in AssayComplete™ Cell Culture Kit-103 (DiscoverX®, 92-3103G) media containing 500 μg/mL G418 and 250 μg/mL hygromycin. PDGFRβ or c-Kit cells (27 μL) in media (DiscoverX®, 93-0563R16B) are seeded at 1.5×10^4 cells/well into all wells of a Corning 384 poly-d-lysine coated white plate. The cell plates are then incubated overnight at 37° C., 5.0% CO2. Compound serial dilutions are then added to rows A-P, columns 3-22. DMSO and inhibitor controls are added to rows A-P, columns 1-2 and 23-24, respectively. Cell plates with compound or controls are incubated for 1 hour at 37° C., 5.0% CO2. […] After 1 hour, cell plates are read on a chemiluminescence capable plate reader. […]

[4] = molecular target: KIT (Homo sapiens, UniProt P10721); test: biochemical
Chain of KIT (P10721 26-976): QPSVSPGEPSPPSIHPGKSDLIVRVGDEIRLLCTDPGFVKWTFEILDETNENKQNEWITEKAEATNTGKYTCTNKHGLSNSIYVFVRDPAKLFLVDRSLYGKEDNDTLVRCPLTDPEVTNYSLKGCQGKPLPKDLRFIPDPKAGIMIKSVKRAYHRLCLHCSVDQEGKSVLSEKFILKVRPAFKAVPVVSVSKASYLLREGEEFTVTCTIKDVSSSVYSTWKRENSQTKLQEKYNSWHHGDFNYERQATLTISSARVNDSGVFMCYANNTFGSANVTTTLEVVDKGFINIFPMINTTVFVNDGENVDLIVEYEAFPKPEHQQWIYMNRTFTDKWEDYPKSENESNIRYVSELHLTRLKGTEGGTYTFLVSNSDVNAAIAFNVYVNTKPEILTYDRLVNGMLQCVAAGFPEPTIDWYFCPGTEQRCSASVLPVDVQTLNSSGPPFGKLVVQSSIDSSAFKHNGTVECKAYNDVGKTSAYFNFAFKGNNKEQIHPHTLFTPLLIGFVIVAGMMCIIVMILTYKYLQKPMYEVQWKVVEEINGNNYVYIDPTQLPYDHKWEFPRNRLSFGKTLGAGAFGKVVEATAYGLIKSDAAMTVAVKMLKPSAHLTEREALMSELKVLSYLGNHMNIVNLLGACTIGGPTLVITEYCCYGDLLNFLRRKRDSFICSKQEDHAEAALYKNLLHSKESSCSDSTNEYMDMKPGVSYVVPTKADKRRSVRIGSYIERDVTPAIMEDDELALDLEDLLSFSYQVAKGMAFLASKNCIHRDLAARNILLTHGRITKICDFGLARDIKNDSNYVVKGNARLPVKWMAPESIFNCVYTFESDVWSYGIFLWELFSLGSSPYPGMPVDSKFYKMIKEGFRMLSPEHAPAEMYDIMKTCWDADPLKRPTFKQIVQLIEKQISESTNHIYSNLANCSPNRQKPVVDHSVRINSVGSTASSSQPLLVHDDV
Procedure: (§1) DiscoverX® KINOMEscan™ In Vitro Kinase Competition Binding Assay
(§2) Compound activity (% binding) is monitored by measuring the amount of kinase captured in test versus control samples by using a qPCR method that detects the associated DNA label. The binding activity is converted to % inhibition and an IC50 value is determined for CSF-1R fold-selectivity assessment.
(§3) Assays to monitor binding to a 468-kinase panel are conducted at DiscoverX® Corporation (Fremont, CA). Test compound is provided as a 10 mM stock in 100% DMSO and evaluated at […] final concentrations. Kinases are tagged with DNA for qPCR detection. […] The liganded beads are blocked with excess biotin and washed with blocking buffer (Pierce SeaBlock, 1% BSA, 0.05% Tween 20 and 1 mM DTT) to remove unbound ligand and to reduce nonspecific binding. […] Test compound is prepared as a 40×stock in 100% DMSO and directly diluted into the assay. All reactions are performed in polypropylene 384-well plates in a final volume of 0.02 mL. […] The kinase concentration in the eluates is measured by qPCR. […]
(§4) The percent inhibition values, and the 3-point concentration response data are subsequently determined and analyzed with NGR software, and non-standard IC50 values are calculated from the resulting curve fit. […]

[5] = molecular target: T2, KIT V559D (Homo sapiens, UniProt P10721, V559D); test: DiscoverX KINOMEscan kinase competition binding assay, KIT V559D; conditions: 2 μM compound concentration
T2 construct: purchased DiscoverX Corporation (Fremont, CA), contract assay
T2 sequence (P10721 26-976 V559D): as the sequence (P10721 26-976) above, with V534D counted along it
Procedure: as §1, §2, §3, §4

[6] = molecular target: T3, KIT L576P (Homo sapiens, UniProt P10721, L576P); test: DiscoverX KINOMEscan kinase competition binding assay, KIT L576P; conditions: 2 μM compound concentration
T3 construct: purchased DiscoverX Corporation (Fremont, CA), contract assay
T3 sequence (P10721 26-976 L576P): as the sequence (P10721 26-976) above, with L551P counted along it
Procedure: as §1, §2, §3, §4

[7] = molecular target: T4, KIT V559D V654A (Homo sapiens, UniProt P10721, V559D/V654A); test: DiscoverX KINOMEscan kinase competition binding assay, KIT V559D V654A; conditions: 2 μM compound concentration
T4 construct: purchased DiscoverX Corporation (Fremont, CA), contract assay
T4 sequence (P10721 26-976 V559D/V654A): as the sequence (P10721 26-976) above, with V534D, V629A counted along it
Procedure: as §1, §2, §3, §4

[8] = molecular target: T5, PDGFRB (Homo sapiens, UniProt P09619); test: DiscoverX KINOMEscan kinase competition binding assay, PDGFRB
T5 construct: purchased DiscoverX Corporation (Fremont, CA), contract assay
T5 sequence (P09619 33-1106): as the sequence (P09619 33-1106) above
Procedure: as §1, §2, §3, §4

[9] = test system: 468-kinase panel; test: DiscoverX KINOMEscan kinase competition binding assay, whole panel; design: species or system human; conditions: of 468 protein kinases, 2 μM compound concentration
Procedure: as §1, §2
Assays to monitor binding to a 468-kinase panel are conducted at DiscoverX® Corporation (Fremont, CA). […] Kinases are tagged with DNA for qPCR detection. […] The liganded beads are blocked with excess biotin and washed with blocking buffer (Pierce SeaBlock, 1% BSA, 0.05% Tween 20 and 1 mM DTT) to remove unbound ligand and to reduce nonspecific binding. […] Test compound is prepared as a 40×stock in 100% DMSO and directly diluted into the assay. All reactions are performed in polypropylene 384-well plates in a final volume of 0.02 mL. […] The kinase concentration in the eluates is measured by qPCR. The results for primary screen binding interactions are reported as ‘% Ctrl’, where lower numbers indicate stronger hits in the matrix.
Percent of control (% Ctrl) calculation: […]
as §4

Question: With `FC(F)(F)c1ccc(CNc2ccc(Cc3c[nH]c4ncc(Cl)cc34)cn2)cn1` [PLX3397] as the compound, how does the “effect on amyloid pathology” value [1] read?
Answer: Its value is “Reductions in intraneuronal amyloid, neuritic plaque formation and pre-fibrillar and fibrillar oligomers”.

Question: And the “effect on cognitive function” value [1]?
Answer: The value was “improvements in cognitive function”.

Question: With `CC1(C)CC=C(c2nc(C3CC(C)(C)OC(C)(C)C3)ccc2NC(=O)c2nc(C#N)c[nH]2)CC1` [JNJ-40346527] as the compound, how does the “effect on tau phosphorylation and aggregation” value [2] read?
Answer: Its value is “inhibit tau phosphorylation and aggregation”.

Question: Which results are given for `COc1ccc(COc2ncc(Cc3ccnc(-c4cnn(C)c4)n3)cc2OC)nc1` [Example 1, 4-({5-Methoxy-6-[(5-methoxypyridin-2-yl)methoxy]pyridin-3-yl}methyl)-2-(1-methyl-1H-pyrazol-4-yl)pyrimidine]?
Answer: IC50 [3]: > 20 µM; inhibition at 2 µM [4]: 99.4%; inhibition at 2 µM [5]: 99.5%; inhibition at 2 µM [6]: 96.4%; inhibition at 2 µM [7]: 84%; inhibition at 2 µM [8]: 90.8%; number of kinases showing less than 35% control activity (or >65% inhibition) [9]: 3 kinases
